Measured values published in US9682995B2, “Amino-substituted isothiazoles” (BAYER PHARMA AKTIENGESELLSCHAFT, priority 2013, dated 2017).

Key:
Experiment in all cases: Kinase Profiling (KINOMEscan)
Type in all cases: binding
[1] = target: 456 kinases (of these 395 non-mutant kinases) (Homo sapiens, UniProt O00329); conditions: PIK3CD; 10 μM
[2] = target: 456 kinases (of these 395 non-mutant kinases) (Homo sapiens, UniProt O43683); conditions: BUB1; 10 μM
[3] = target: 456 kinases (of these 395 non-mutant kinases) (Homo sapiens, UniProt O94921); conditions: PFTK1; 10 μM
[4] = target: 456 kinases (of these 395 non-mutant kinases) (Homo sapiens, UniProt P10721, D816H); conditions: KIT(D816H); 10 μM
456 kinases (of these 395 non-mutant kinases) (Homo sapiens, UniProt P10721, D816H), sequence (P10721 26-976 D816H limits assumed): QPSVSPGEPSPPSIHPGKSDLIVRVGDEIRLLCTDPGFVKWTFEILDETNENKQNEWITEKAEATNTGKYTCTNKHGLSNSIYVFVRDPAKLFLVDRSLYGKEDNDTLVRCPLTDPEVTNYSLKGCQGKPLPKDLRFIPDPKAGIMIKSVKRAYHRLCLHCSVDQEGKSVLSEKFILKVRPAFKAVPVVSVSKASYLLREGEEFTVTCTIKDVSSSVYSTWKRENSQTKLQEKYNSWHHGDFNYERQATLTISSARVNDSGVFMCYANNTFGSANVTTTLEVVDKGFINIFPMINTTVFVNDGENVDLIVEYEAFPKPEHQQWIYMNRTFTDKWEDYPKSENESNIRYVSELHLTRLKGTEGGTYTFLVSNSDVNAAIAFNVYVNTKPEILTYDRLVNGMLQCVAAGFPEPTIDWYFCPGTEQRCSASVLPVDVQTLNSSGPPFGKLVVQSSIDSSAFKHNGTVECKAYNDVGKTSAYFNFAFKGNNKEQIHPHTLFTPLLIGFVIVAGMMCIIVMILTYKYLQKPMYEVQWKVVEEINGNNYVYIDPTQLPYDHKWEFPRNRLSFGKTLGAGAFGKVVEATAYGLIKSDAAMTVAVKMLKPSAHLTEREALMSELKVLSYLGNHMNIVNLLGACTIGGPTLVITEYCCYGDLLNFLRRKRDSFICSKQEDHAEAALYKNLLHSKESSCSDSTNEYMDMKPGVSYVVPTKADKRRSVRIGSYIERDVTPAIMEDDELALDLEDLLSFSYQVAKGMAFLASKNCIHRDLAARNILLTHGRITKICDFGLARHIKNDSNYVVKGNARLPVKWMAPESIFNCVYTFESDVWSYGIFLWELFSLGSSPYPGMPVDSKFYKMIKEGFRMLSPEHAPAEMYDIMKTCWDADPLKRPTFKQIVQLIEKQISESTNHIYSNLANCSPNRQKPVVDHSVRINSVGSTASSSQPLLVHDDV

[5] = target: 456 kinases (of these 395 non-mutant kinases) (Homo sapiens, UniProt P10721, D816V); conditions: KIT(D816V); 10 μM
456 kinases (of these 395 non-mutant kinases) (Homo sapiens, UniProt P10721, D816V), sequence (P10721 26-976 D816V limits assumed): as the sequence (P10721 26-976 D816H limits assumed) above, with H791V counted along it

[6] = target: 456 kinases (of these 395 non-mutant kinases) (Homo sapiens, UniProt P10721, L576P); conditions: KIT(L576P); 10 μM
456 kinases (of these 395 non-mutant kinases) (Homo sapiens, UniProt P10721, L576P), sequence (P10721 26-976 L576P limits assumed): as the sequence (P10721 26-976 D816H limits assumed) above, with L551P, H791D counted along it

[7] = target: 456 kinases (of these 395 non-mutant kinases) (Homo sapiens, UniProt P10721, T670I/V559D); conditions: KIT(V559D,T670I); 10 μM
456 kinases (of these 395 non-mutant kinases) (Homo sapiens, UniProt P10721, T670I/V559D), sequence (P10721 26-976 V559D/T670I limits assumed): as the sequence (P10721 26-976 D816H limits assumed) above, with V534D, T645I, H791D counted along it

[8] = target: 456 kinases (of these 395 non-mutant kinases) (Homo sapiens, UniProt P17612); conditions: PKAC-alpha; 10 μM
[9] = target: 456 kinases (of these 395 non-mutant kinases) (Homo sapiens, UniProt P22694); conditions: PKAC-beta; 10 μM
[10] = target: 456 kinases (of these 395 non-mutant kinases) (Homo sapiens, UniProt P31749); conditions: AKT1; 10 μM
[11] = target: 456 kinases (of these 395 non-mutant kinases) (Homo sapiens, UniProt P42336, H1047Y); conditions: PIK3CA(H1047Y); 10 μM
[12] = target: 456 kinases (of these 395 non-mutant kinases) (Homo sapiens, UniProt P42685); conditions: FRK; 10 μM
[13] = target: 456 kinases (of these 395 non-mutant kinases) (Homo sapiens, UniProt P49759); conditions: CLK1; 10 μM
[14] = target: 456 kinases (of these 395 non-mutant kinases) (Homo sapiens, UniProt P52564); conditions: MEK6; 10 μM
[15] = target: 456 kinases (of these 395 non-mutant kinases) (Homo sapiens, UniProt P53671); conditions: LIMK2; 10 μM
[16] = target: 456 kinases (of these 395 non-mutant kinases) (Homo sapiens, UniProt P78368); conditions: CSNK1G2; 10 μM
[17] = target: 456 kinases (of these 395 non-mutant kinases) (Homo sapiens, UniProt Q13164); conditions: ERK5; 10 μM
456 kinases (of these 395 non-mutant kinases) (Homo sapiens, UniProt Q13164), sequence (Q13164 2-816 limits assumed, change not shown): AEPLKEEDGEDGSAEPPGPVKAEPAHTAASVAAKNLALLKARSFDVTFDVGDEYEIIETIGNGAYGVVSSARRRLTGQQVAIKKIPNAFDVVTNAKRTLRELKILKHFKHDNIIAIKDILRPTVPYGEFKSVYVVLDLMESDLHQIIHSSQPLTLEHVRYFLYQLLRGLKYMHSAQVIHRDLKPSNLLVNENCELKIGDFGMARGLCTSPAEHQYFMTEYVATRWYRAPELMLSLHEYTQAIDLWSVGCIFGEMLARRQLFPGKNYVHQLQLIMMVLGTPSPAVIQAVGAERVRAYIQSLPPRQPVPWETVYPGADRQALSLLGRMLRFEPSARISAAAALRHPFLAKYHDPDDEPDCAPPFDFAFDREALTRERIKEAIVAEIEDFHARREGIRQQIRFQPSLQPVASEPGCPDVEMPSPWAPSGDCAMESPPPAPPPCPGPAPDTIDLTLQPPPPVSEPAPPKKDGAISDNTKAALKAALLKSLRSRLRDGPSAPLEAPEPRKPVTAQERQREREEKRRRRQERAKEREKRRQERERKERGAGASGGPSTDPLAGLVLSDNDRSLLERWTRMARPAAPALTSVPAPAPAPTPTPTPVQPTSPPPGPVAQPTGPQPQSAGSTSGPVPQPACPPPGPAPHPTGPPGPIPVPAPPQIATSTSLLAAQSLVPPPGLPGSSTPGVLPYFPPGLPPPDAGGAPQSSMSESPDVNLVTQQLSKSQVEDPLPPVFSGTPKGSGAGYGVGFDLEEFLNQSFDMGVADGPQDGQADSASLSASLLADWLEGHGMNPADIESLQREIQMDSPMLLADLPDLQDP

[18] = target: 456 kinases (of these 395 non-mutant kinases) (Homo sapiens, UniProt Q13627); conditions: DYRK1A; 10 μM
[19] = target: 456 kinases (of these 395 non-mutant kinases) (Homo sapiens, UniProt Q13873); conditions: BMPR2; 10 μM
456 kinases (of these 395 non-mutant kinases) (Homo sapiens, UniProt Q13873), sequence (Q13873 27-1038 limits assumed, change not shown): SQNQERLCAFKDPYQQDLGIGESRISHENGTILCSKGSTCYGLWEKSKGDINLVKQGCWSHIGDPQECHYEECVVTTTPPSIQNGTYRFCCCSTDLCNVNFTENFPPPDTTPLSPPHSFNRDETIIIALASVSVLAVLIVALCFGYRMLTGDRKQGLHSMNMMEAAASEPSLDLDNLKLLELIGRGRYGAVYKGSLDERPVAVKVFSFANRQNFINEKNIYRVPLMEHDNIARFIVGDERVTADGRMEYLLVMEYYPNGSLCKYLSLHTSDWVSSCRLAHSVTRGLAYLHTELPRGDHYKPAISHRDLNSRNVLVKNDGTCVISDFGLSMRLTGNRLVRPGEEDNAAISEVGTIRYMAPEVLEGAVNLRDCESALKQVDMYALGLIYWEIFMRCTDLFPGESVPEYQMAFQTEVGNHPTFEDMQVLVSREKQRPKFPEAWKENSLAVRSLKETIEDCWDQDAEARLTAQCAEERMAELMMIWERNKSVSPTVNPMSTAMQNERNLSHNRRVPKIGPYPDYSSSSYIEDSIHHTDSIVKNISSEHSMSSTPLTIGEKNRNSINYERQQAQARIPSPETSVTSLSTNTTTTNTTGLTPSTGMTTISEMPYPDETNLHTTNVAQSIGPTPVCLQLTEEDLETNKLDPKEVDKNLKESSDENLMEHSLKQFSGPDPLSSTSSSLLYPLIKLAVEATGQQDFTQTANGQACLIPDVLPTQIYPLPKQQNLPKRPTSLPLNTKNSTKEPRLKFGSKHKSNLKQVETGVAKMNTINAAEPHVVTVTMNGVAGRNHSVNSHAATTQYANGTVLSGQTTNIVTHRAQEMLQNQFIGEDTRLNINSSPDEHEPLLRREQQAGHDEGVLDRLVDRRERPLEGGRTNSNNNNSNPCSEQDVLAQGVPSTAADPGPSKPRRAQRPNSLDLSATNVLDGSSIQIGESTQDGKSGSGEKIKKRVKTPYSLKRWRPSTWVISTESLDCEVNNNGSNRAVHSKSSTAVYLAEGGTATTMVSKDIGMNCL

[20] = target: 456 kinases (of these 395 non-mutant kinases) (Homo sapiens, UniProt Q2M2I8); conditions: AAK1; 10 μM
[21] = target: 456 kinases (of these 395 non-mutant kinases) (Homo sapiens, UniProt Q52WX2); conditions: SBK1; 10 μM
[22] = target: 456 kinases (of these 395 non-mutant kinases) (Homo sapiens, UniProt Q7L7X3); conditions: TAOK1; 10 μM
[23] = target: 456 kinases (of these 395 non-mutant kinases) (Homo sapiens, UniProt Q86Y07); conditions: VRK2; 10 μM
[24] = target: 456 kinases (of these 395 non-mutant kinases) (Homo sapiens, UniProt Q8TF76); conditions: HASPIN; 10 μM
[25] = target: 456 kinases (of these 395 non-mutant kinases) (Homo sapiens, UniProt Q8WTQ7); conditions: GRK7; 10 μM
[26] = target: 456 kinases (of these 395 non-mutant kinases) (Homo sapiens, UniProt Q96RR4); conditions: CAMKK2; 10 μM
456 kinases (of these 395 non-mutant kinases) (Homo sapiens, UniProt Q96RR4), sequence (Q96RR4 2-588 limits assumed, change not shown): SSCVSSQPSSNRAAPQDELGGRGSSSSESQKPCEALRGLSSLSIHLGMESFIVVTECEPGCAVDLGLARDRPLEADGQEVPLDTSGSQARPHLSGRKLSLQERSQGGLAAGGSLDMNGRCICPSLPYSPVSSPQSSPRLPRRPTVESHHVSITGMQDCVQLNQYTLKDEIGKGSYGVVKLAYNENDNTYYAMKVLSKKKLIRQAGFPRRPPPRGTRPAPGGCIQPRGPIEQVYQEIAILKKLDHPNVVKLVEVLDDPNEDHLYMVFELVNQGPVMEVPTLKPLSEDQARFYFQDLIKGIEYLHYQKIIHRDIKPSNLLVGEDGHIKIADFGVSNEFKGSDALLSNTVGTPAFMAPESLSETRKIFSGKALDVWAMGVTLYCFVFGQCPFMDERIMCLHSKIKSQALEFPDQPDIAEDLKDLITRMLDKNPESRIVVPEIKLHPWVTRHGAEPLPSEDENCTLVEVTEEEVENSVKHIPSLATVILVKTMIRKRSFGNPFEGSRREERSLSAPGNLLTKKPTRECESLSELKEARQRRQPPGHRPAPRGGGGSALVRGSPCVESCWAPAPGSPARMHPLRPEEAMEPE

[27] = target: 456 kinases (of these 395 non-mutant kinases) (Homo sapiens, UniProt Q99558); conditions: NIK; 10 μM
[28] = target: 456 kinases (of these 395 non-mutant kinases) (Homo sapiens, UniProt Q9HC98); conditions: NEK6; 10 μM
[29] = target: 456 kinases (of these 395 non-mutant kinases) (Homo sapiens, UniProt Q9NRH2); conditions: SNRK; 10 μM
[30] = target: 456 kinases (of these 395 non-mutant kinases) (Homo sapiens, UniProt Q9UBE8); conditions: NLK; 10 μM
[31] = target: 456 kinases (of these 395 non-mutant kinases) (Homo sapiens, UniProt Q9UKE5); conditions: TNIK; 10 μM
[32] = target: 456 kinases (of these 395 non-mutant kinases) (Homo sapiens, UniProt Q9UPE1); conditions: SRPK3; 10 μM

Which “% Ctrl @ 10 μM” value [1] does the source give for `CCc1ccccc1NC(=O)c1c(C)nsc1Nc1cnc2cc(F)ccc2n1` [Example 20, N-(2-Ethylphenyl)-5-[(6-fluoroquinoxalin-2-yl)amino]-3-methyl-1,2-thiazole-4-carboxamide] here?
The value was 100 % Ctrl.

What about the “% Ctrl @ 10 μM” value [2] of the same compound?
The value was 100 % Ctrl.

And the “% Ctrl @ 10 μM” value [3]?
The value was 93 % Ctrl.

And the “% Ctrl @ 10 μM” value [4]?
Its value is 97 % Ctrl.

And the “% Ctrl @ 10 μM” value [5]?
The value was 61 % Ctrl.

And the “% Ctrl @ 10 μM” value [6]?
The value was 100 % Ctrl.

And the “% Ctrl @ 10 μM” value [7]?
Its value is 100 % Ctrl.

And the “% Ctrl @ 10 μM” value [8]?
Its value is 91 % Ctrl.

And the “% Ctrl @ 10 μM” value [9]?
The value was 82 % Ctrl.

What about the “% Ctrl @ 10 μM” value [10] of the same compound?
Its value is 100 % Ctrl.

What about the “% Ctrl @ 10 μM” value [11] of the same compound?
Its value is 100 % Ctrl.

What about the “% Ctrl @ 10 μM” value [12] of the same compound?
The value was 66 % Ctrl.

What about the “% Ctrl @ 10 μM” value [13] of the same compound?
The value was 58 % Ctrl.

And the “% Ctrl @ 10 μM” value [14]?
Its value is 95 % Ctrl.

And the “% Ctrl @ 10 μM” value [15]?
The value was 94 % Ctrl.

And the “% Ctrl @ 10 μM” value [16]?
Its value is 95 % Ctrl.

What about the “% Ctrl @ 10 μM” value [17] of the same compound?
Its value is 100 % Ctrl.

What about the “% Ctrl @ 10 μM” value [18] of the same compound?
Its value is 100 % Ctrl.

What about the “% Ctrl @ 10 μM” value [19] of the same compound?
The value was 100 % Ctrl.

And the “% Ctrl @ 10 μM” value [20]?
Its value is 68 % Ctrl.

What about the “% Ctrl @ 10 μM” value [21] of the same compound?
Its value is 91 % Ctrl.

What about the “% Ctrl @ 10 μM” value [22] of the same compound?
The value was 100 % Ctrl.

And the “% Ctrl @ 10 μM” value [23]?
Its value is 100 % Ctrl.

What about the “% Ctrl @ 10 μM” value [24] of the same compound?
Its value is 100 % Ctrl.

What about the “% Ctrl @ 10 μM” value [25] of the same compound?
Its value is 94 % Ctrl.

And the “% Ctrl @ 10 μM” value [26]?
The value was 74 % Ctrl.

What about the “% Ctrl @ 10 μM” value [27] of the same compound?
Its value is 96 % Ctrl.

And the “% Ctrl @ 10 μM” value [28]?
The value was 100 % Ctrl.

And the “% Ctrl @ 10 μM” value [29]?
Its value is 100 % Ctrl.

What about the “% Ctrl @ 10 μM” value [30] of the same compound?
Its value is 100 % Ctrl.

And the “% Ctrl @ 10 μM” value [31]?
Its value is 100 % Ctrl.

And the “% Ctrl @ 10 μM” value [32]?
Its value is 87 % Ctrl.
